Assays:
[1] = system: zebrafish embryos; assay: CML microinjection into zebrafish embryos: survival rate and embryo development; format: in vivo, zebrafish (Danio rerio)
Description: The present inventors constructed a zebrafish embryonic animal model microinjected with CML to establish an acute cytokine storm induction system. After confirming under a microscope that the freshly spawned zebrafish embryos were 30 minutes post-fertilization (0.5 hour post fertilization (0.5 hpf)), the fertilized embryos that were dividing normally were selected. […] The tip of the needle was sharpened by cutting it diagonally using a sharp forcep, a hole was made, and 5 μL of injection cocktail solution was added to the microglass needle.
(§1) Eggs were densely packed and arranged at appropriate intervals on a 1% agarose gel with grooves of appropriate spacing to facilitate rapid microinjection. A microglass needle was attached to a microinjector (PV-830, World Precision Instruments, Sarasota, FL, USA), 5 μL of mineral oil was spread on a graduated hematocytometer, the needle was placed on top of it, and the contents were injected. The size of the bubble formed was measured and calibrated to the desired volume, after which it was injected into zebrafish embryos at the 2-cell and 4-cell stages.
(§2) At this time, in order to minimize errors in the microinjection process, microinjection was performed as much as possible into the yolk area. After microinjection, the embryos were separated from the agarose gel and placed in a Petri dish, which was then filled with 20 mL of egg water (0.02 mg/L methylene blue) and stored at 28° C.
To compare the survival rates of zebrafish embryos, the inventors prepared a non-injected group (No injection), a PBS-injected control group (PBS control), and a CML-injected group.

[2] = system: zebrafish adults; assay: Intraperitoneal CML plus test substances in zebrafish adults: recovery of swimming ability and survival; format: in vivo, zebrafish (Danio rerio); details: for swimming ability compared with CML injected group / recovery of ability to swim compared with CML injected group: co-injected with CML; for swimming ability compared with CML injected group: 30 minutes after injection; for survival rate of zebrafish adults: combined treatment with CML, FIG. 11
Excerpt: The cytokine storm suppression ability of the test substances was compared by confirming the swimming ability of zebrafish of the groups injected with PBS, CML, CML and Remsima (Infliximab), and CML and Actemra (Tocilizumab) via intraperitoneal administration (FIG. 9).
The effects of the test substances in the CML and Remsima (Infliximab) injected group and the CML and Actemra (Tocilizumab) injected group were compared.

[3] = system: liver tissue of zebrafish adults; assay: Hematoxylin-eosin (H&E) staining of liver tissue: inflammatory cell infiltration; format: in vivo, zebrafish (Danio rerio)
Description: To compare the degree of acute cytokine storm induction by CML and alleviation, hematoxylin-eosin (H&E) staining was performed on zebrafish adults of the PBS-injected and CML-injected groups, and the degree of inflammatory cell infiltration in the liver tissue was investigated.
That is, the inhibitory effect of the IL-6 inhibitor Actemra (Tocilizumab) on inflammation caused by CML-induced glycation toxicity was greater than that of the TNF-α inhibitor Remsima (Infliximab).

[4] = system: zebrafish adults; assay: Plasma total cholesterol (TC) and triglyceride (TG) after CML with or without test substances; format: in vivo, zebrafish (Danio rerio); details: for plasma triglyceride (TG) concentration: FIG. 15
Description: Zebrafish adults were treated with CML at a concentration of 3 mM, and Actemra (Tocilizumab) and Remsima (Infliximab) were simultaneously treated to confirm the effects of the test substances on reducing total cholesterol (TC) and triglyceride (TG).
Blood was collected from zebrafish in each group, plasma was isolated, and total cholesterol (TC) and triglyceride (TG) were analyzed.

[5] = system: serum amyloid A (SAA); assay: Plasma serum amyloid A after CML with or without test substances; format: in vivo, zebrafish (Danio rerio); details: FIG. 16
Description: (§3) Blood was collected from zebrafish in each group, plasma was isolated, and total cholesterol (TC) and triglyceride (TG) were analyzed. Blood was collected from zebrafish in each group, plasma was isolated, and serum amyloid A (SAA), a biomarker of hepatitis induction, interleukin-6 (IL-6), a factor that induces an acute cytokine storm in the liver, and tumor necrosis factor-α (TNF-α), an inflammatory cytokine involved in liver inflammation were analyzed.

[6] = system: interleukin-6 (IL-6); assay: Plasma interleukin-6 after CML with or without test substances; format: in vivo, zebrafish (Danio rerio); details: FIG. 17
Description: as §3

[7] = system: tumor necrosis factor-α (TNF-α); assay: Plasma tumor necrosis factor-α after CML with or without test substances; format: in vivo, zebrafish (Danio rerio); details: FIG. 18
Description: as §3

[8] = system: zebrafish adults; assay: Intraperitoneal CML injection into zebrafish adults: swimming ability, acute paralysis, survival
Description: Movements of 10 zebrafish adults (16±3 weeks old) injected intraperitoneally with CML (250 μg, 10 μL) solution (final conc. of CML: 3 mM) and 10 zebrafish adults injected with PBS were observed 30 minutes and 1 hour after injection.

[9] = system: zebrafish embryos; assay: Combined microinjection of CML with test substances into zebrafish embryos: survival rate and development; format: in vivo, zebrafish (Danio rerio); details: for survival rate of embryos: co-injected with 500 ng CML, 43 ng Remsima or 44 ng Actemra, after 24 hours, FIG. 3; for rate of development: co-injected with CML, 25 hours post-injection; for rate of development / developmental defects: FIG. 4; for developmental defects: microinjected mixture with CML
Description: The present inventors constructed a zebrafish embryonic animal model microinjected with CML to establish an acute cytokine storm induction system. After confirming under a microscope that the freshly spawned zebrafish embryos were 30 minutes post-fertilization (0.5 hour post fertilization (0.5 hpf)), the fertilized embryos that were dividing normally were selected. A capillary glass tube (TW100F-4, World Precision Instruments, Sarasota, FL, USA) was inserted into a micro-glass needle maker (PC-10, Narishege, Tokyo, Japan), and the coil was adjusted to be in the center of the capillary glass tube, and then a needle was made at a temperature of 71.3° C. The tip of the needle was sharpened by cutting it diagonally using a sharp forcep, a hole was made, and 5 μL of injection cocktail solution was added to the microglass needle.
as §1
as §2, with “C. All injection processes were performed under a stereomicroscope (SMZ-168, Motic, Hong Kong) at 20× magnification.” for “C.”

[10] = CML-injected embryos, about 25 hours post-fertilization
[11] = intraperitoneal, 1 hour after injection, FIG. 9
[12] = treated simultaneously with CML, FIGS. 12 and 13
[13] = treated simultaneously with CML

Compound | survival rate of embryos [9] [%] | rate of development [9] | developmental defects [9] | swimming ability compared with CML injected group ([2]; intraperitoneal, FIG. 9) | recovery of ability to swim compared with CML injected group [2, 11] | survival rate of zebrafish adults [2] | inflammatory cell infiltration in liver tissue [3, 12] | serum amyloid A (SAA) [5, 13] [ng/mL] | IL-6 [6, 13] [pg/mL] | TNF-α [7, 13] [ng/mL] | further results
N[C@@H](CCCCNCC(=O)O)C(=O)O [CML, N-ε-carboxymethyllysine] |  |  |  |  |  |  |  |  |  |  | survival rate of zebrafish embryos ([1]; 500 ng CML microinjected (20 nL, 25 mg/mL in PBS), 24 hours, FIG. 1): 23.5%; developmental stage of embryos ([1]; 25 hours after CML injection, FIG. 2): 21-somite stage; developmental morphology ([1]; CML-injected embryos): developmental malformations were present in the head and tail; developmental state, equivalent time after fertilization [1, 10]: about 19.5 hours after fertilization; number of somites [1, 10]: about 21; number of zebrafish showing recovery of swimming ability ([2]; CML group, 3 mM intraperitoneal, 1 hour after injection, FIG. 9): 2 to 3; inflammatory cell infiltration in liver tissue ([3]; CML alone, FIGS. 12 and 13): approximately 23%; inflammatory cell infiltration in liver tissue ([3]; CML only injection group, FIG. 8): 27%; plasma total cholesterol (TC) concentration ([4]; CML alone, 3 mM, FIG. 14): highest; plasma triglyceride (TG) concentration ([4]; CML alone, 3 mM): highest; serum amyloid A (SAA) ([5]; CML alone): 59.7 ± 1.6 ng/mL; IL-6 ([6]; CML alone): 76.4 ± 6.1 pg/mL; TNF-α ([7]; CML alone): 43.5 ± 0.4 ng/mL; zebrafish that recovered the ability to swim ([8]; CML 250 μg intraperitoneal (final 3 mM), 1 hour after injection, FIGS. 5 and 6): 25%; movement / swimming ability ([8]; CML 250 μg, 10 μL intraperitoneal (final 3 mM), first 30 minutes after injection): immobilized and lying on the bottom; survival rate of zebrafish adults ([8]; CML alone, intraperitoneal, after 60 minutes, FIG. 8): less than 49%
Actemra: biopharmaceutical, an IL-6 inhibitor, used as treatment agent for rheumatoid arthritis | 53.1 | almost the same rate of development as embryos injected with PBS | no developmental defects were observed | More zebrafish | more zebrafish had regained the ability to swim | approximately 97% | 15-17% | 38.8 ± 2.0 | 51.8 ± 1.8 | 6.8 ± 2.6 | recovery of swimming ability and survival rate compared with 43 μg Remsima ([2]; 44 μg Actemra with CML, intraperitoneal, FIGS. 10 and 11): recovery of swimming ability was better and survival rate was increased; plasma triglyceride (TG) concentration ([4]; treated simultaneously with 3 mM CML): lowest
Remsima: biopharmaceutical, a TNF-α inhibitor, used as treatment agent for rheumatoid arthritis | 38.4 | almost the same rate of development as embryos injected with PBS | no developmental defects were observed | More zebrafish | more zebrafish had regained the ability to swim | 63% | approximately 23% | 41.2 ± 5.3 | 62.8 ± 3.1 | 41.6 ± 5.8 | 
